Structures can show the parent of a compound that is named as a salt.
Target: Genome polyprotein (West Nile virus, UniProt P06935)
Assay: inhibitors of WNV NS2B-NS3 protease, dose response, biochemical, confirmation (AID 653)

Genome polyprotein, sequence (P06935 1371-1501 limits assumed): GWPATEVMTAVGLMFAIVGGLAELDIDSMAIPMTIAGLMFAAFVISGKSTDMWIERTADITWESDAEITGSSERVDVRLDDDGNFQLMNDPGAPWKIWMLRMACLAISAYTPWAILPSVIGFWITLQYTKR
Genome polyprotein, sequence (P06935 1502-2120 limits assumed): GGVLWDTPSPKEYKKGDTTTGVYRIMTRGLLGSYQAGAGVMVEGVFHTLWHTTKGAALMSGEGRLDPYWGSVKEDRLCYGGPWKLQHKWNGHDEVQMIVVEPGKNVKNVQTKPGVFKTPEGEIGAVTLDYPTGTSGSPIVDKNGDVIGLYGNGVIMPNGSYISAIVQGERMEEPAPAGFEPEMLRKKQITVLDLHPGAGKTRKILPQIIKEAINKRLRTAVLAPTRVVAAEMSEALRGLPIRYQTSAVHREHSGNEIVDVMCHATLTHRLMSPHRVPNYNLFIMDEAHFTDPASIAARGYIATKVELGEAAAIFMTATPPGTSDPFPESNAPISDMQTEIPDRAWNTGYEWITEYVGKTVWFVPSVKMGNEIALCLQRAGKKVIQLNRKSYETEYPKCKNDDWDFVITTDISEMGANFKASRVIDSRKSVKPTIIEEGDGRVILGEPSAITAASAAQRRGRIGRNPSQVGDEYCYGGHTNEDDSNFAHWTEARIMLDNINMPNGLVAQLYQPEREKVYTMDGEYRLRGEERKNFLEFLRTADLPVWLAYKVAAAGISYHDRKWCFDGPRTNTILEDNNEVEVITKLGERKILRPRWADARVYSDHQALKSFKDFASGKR

IC50 [µM] | Structure (SMILES)
> 50 | CCCCNC(=O)NS(=O)(=O)c1ccc(C)cc1 [1-Butyl-3-(p-methylphenylsulfonyl)urea]
> 50 | CN(C)/C=C1/Sc2ccccc2C1=O [(2E)-2-(dimethylaminomethylene)benzothiophen-3-one]
> 50 | O=S(=O)(c1ccc(F)cc1)N(CCO)CC(O)Cn1c2ccccc2c2ccccc21 (stereo not given) [MLS000088265]
> 50 | CN1CCN(CC(=O)N2c3ccccc3C(=O)Nc3cccnc32)CC1 [11-[(4-methylpiperazin-1-yl)acetyl]-5,11-dihydro-6H-pyrido[2,3-b][1,4]benzodiazepin-6-one]
> 50 | COc1ccc(-c2cn3ccsc3n2)cc1 [6-(4-methoxyphenyl)imidazo[2,1-b][1,3]thiazole]
> 50 | Cc1ccc(NC(=O)C2CCN(S(=O)(=O)c3cccc4nonc34)CC2)nc1 [1-(2,1,3-benzoxadiazol-4-ylsulfonyl)-N-(5-methyl-2-pyridinyl)-4-piperidinecarboxamide]
14.4 | Cc1ccc(S(=O)(=O)n2nc(OC(=O)c3ccco3)cc2N)cc1 [MLS000033865]
> 50 | CCN(CC(=O)Nc1ccccc1OC)C(=O)C1CC2C=CC1C2 (stereo not given) [MLS000053693]
10.1 | COc1ccc2c3c(cccc13)NN=C2C [6-Methoxy-3-methyl-1H-benzo[de]cinnoline]
1.65 | Nc1cc(OC(=O)c2ccco2)nn1S(=O)(=O)c1ccc(F)cc1
> 50 | Nc1ncnc2c1ncn2[C@@H]1O[C@H](CO)[C@@H](O)[C@H]1O [[U-14C]adenosine]
> 50 | OCCNC1=NCCN1 [SMR000038385]
> 50 | CC1=C(C#N)C(=O)OC(C)(C)C1 [2,2,4-trimethyl-6-oxidanylidene-3H-pyran-5-carbonitrile]
> 50 | CCOC(=O)c1c(C)n(C)c2ccc(OC)c(NC(=O)CN3CCCCC3)c12 [5-methoxy-1,2-dimethyl-4-[(2-piperidinoacetyl)amino]indole-3-carboxylic acid ethyl ester]
> 50 | CCC(=O)O[C@]1(C(=O)CCl)[C@@H](C)C[C@H]2[C@@H]3CCC4=CC(=O)C=C[C@]4(C)[C@@]3(F)[C@@H](O)C[C@@]21C [MLS000028708]
> 50 | Cc1ccc(Cl)cc1NC(=O)c1ocnc1C [MLS000092879]
> 50 | CN(C)c1nc(N(C)C)nc(N(C)C)n1 [ALTRETAMINE]
> 50 | CCn1cc(C(=O)Nc2cccc(C(=O)OC)c2)c(=O)c2ccc(C)nc21 [3-[(1-Ethyl-7-methyl-4-oxo-1,4-dihydro-[1,8]naphthyridine-3-carbonyl)-amino]-benzoic acid methyl ester]
> 50 | CCOc1ccccc1N(CC(=O)NC1CCCC1)C(=O)CCC(=O)Nc1cc(C)on1 [MLS000032086]
> 50 | Cc1ccc(NC(=O)C2C3CC4OC(=O)C2C4C3)cc1Cl (stereo not given) [N-(3-chloro-4-methylphenyl)-5-oxo-4-oxatricyclo[4.2.1.0~3,7~]nonane-9-carboxamide]

IC50 [µM] | Structure (SMILES)
> 50 | COc1ccc(N2CCN(C(=O)c3cn(C)c(=O)c4c3c3ccccc3n4C)CC2)cc1 [4-[4-(4-methoxyphenyl)piperazin-1-yl]carbonyl-2,9-dimethyl-pyrido[3,4-b]indol-1-one]
> 50 | Nc1ccc(S(=O)(=O)Nc2ccccn2)cc1 [MLS000069725]
> 50 | COC(=O)CSC1=NC2=C(C(=O)CCC2)C(c2ccc(C)cc2)C1C#N (stereo not given) [methyl 2-[[3-cyano-4-(4-methylphenyl)-5-oxo-4,6,7,8-tetrahydro-1H-quinolin-2-yl]sulfanyl]acetate]
> 50 | CC(C[N+](C)(C)C)OC(N)=O (stereo not given) [2-aminocarbonyloxypropyl(trimethyl)azanium;chloride]
> 50 | COc1ccccc1-n1c(C)nnc1SCC(=O)Nc1cc(C)cc(C)c1 [MLS000032151]
> 50 | NC(=O)NC1CCCc2c1[nH]c1ccc(Cl)cc21 (stereo not given) [SMR000091683]
> 50 | O=C(OC1CCCCC1)c1ccc2c(c1)C1C=CCC1C(C(=O)O)N2 (stereo not given) [SMR000019385]
> 50 | CC(=O)Nc1nc2ccccc2n1CCOc1ccccc1Cl [MLS000034055]
> 50 | COc1ccc(OC)c(NS(=O)(=O)c2cccs2)c1 [MLS000070319]
> 50 | COc1cc(C)nc(Oc2ccc(OCCOc3ccc(C)cc3)nn2)n1 [4-methoxy-6-methyl-2-[6-[2-(4-methylphenoxy)ethoxy]pyridazin-3-yl]oxy-pyrimidine]
> 50 | CC(C)c1nnc(NC(=O)c2c(O)n3c4c(cccc4c2=O)CCC3)s1 [1-Hydroxy-3-oxo-6,7-dihydro-3H,5H-pyrido[3,2,1-ij]quinoline-2-carboxylic acid (5-isopropyl-[1,3,4]thiadiazol-2-yl)-amide]
> 50 | COc1cccc(NC(=O)CSc2nc3nnc(C)c-3c(N)n2-c2cccc(OC)c2)c1 [2-[4-amino-5-(3-methoxyphenyl)-3-methylpyrazolo[3,4-d]pyrimidin-6-yl]sulfanyl-N-(3-methoxyphenyl)acetamide]
0.553 | COc1ccc(S(=O)(=O)n2nc(OC(=O)c3ccco3)cc2N)cc1 [MLS000033887]
> 50 | Cn1nnc2cc(C(=O)NC3CCCCC3)ccc21 [MLS000063766]
> 50 | NC(=O)c1ccc(-n2nnnc2SCc2ccc(F)cc2)cc1 [4-[5-[(4-fluorobenzyl)thio]tetrazol-1-yl]benzamide]
> 50 | CC(C)(S)[C@@H](N)C(=O)O [MLS000028669]
> 50 | CCN(Cc1ccccc1)C(=O)c1ccccc1C [MLS000058902]
> 50 | Cc1nn(-c2ccccc2)c2sc(C(=O)OC3CCOC3=O)cc12 (stereo not given) [(2-oxidanylideneoxolan-3-yl) 3-methyl-1-phenyl-thieno[2,3-c]pyrazole-5-carboxylate]
> 50 | CCCCC[C@H](O)C=C[C@H]1C=CC(=O)[C@@H]1C/C=C\CCCC(=O)O [(Z)-7-[(1R,5S)-2-oxidanylidene-5-[(E,3S)-3-oxidanyloct-1-enyl]cyclopent-3-en-1-yl]hept-5-enoic acid]
> 50 | Cc1sc2nc3c4ccccc4c(NCc4ccco4)nn3c(=O)c2c1C [MLS000056809]

IC50 [µM] | Structure (SMILES)
> 50 | COc1ccc(C2=Nn3c(nnc3-c3ccc(OC)cc3)SC2)cc1
2.41 | Cc1ccc(S(=O)(=O)n2nc(OC(=O)c3cccs3)cc2N)cc1
> 50 | CCOC(=O)CNC(=O)C(Cc1ccccc1)NS(=O)(=O)c1cccs1 (stereo not given) [2-[[1-oxo-3-phenyl-2-(thiophen-2-ylsulfonylamino)propyl]amino]acetic acid ethyl ester]
> 50 | COc1ccc(OC)c(C2C(C(N)=O)C(C)=Nc3nc(-c4cccc(Cl)c4)nn32)c1 (stereo not given) [2-(3-chlorophenyl)-7-(2,5-dimethoxyphenyl)-5-methyl-1,7-dihydro-[1,2,4]triazolo[1,5-a]pyrimidine-6-carboxamide]
1.16 | Nc1cc(OC(=O)c2cccs2)nn1S(=O)(=O)c1ccc(F)cc1 [5-amino-1-[(4-fluorophenyl)sulfonyl]-1H-pyrazol-3-yl thiophene-2-carboxylate]
> 50 | Cn1c2ccccc2c2nn(-c3ccccc3)c(=O)cc21 [5-methyl-2-phenyl-3-pyridazino[4,3-b]indolone]
> 50 | CC(CC1(O)C(=O)N(Cc2ccccc2)c2ccccc21)N=O (stereo not given) [1-benzyl-3-(2-hydroximinopropyl)-3-hydroxy-oxindole]
> 50 | COc1cc(C2CC(C(F)(F)F)n3ncc(C(=O)O)c3N2)cc(OC)c1OC (stereo not given) [7-(trifluoromethyl)-5-(3,4,5-trimethoxyphenyl)-1,5,6,7-tetrahydropyrazolo[1,5-a]pyrimidine-3-carboxylic acid]
> 50 | CCN1CCN(CNC(=O)c2cnccn2)CC1 [MLS000082173]
> 50 | CC(C)CCN1CC(C(=O)NCc2ccc(F)cc2)CC1=O (stereo not given) [MLS000096189]
> 50 | CCCC(=O)Nc1ccc(NC(=O)C23CC4CC(CC(C4)C2)C3)cn1
> 50 | Cc1ccccc1S(=O)(=O)Cc1ccc(C(=O)NCCCOC(C)C)o1 [5-[(2-methylphenyl)sulfonylmethyl]-N-(3-propan-2-yloxypropyl)-2-furancarboxamide]
> 50 | Cn1cc(C(=O)NCN2CCCCC2)c2ccccc21 [1-methyl-N-(1-piperidinylmethyl)-3-indolecarboxamide;hydrochloride]
1.35 | Cc1cc(OC(=O)c2ccccc2)n(CCC#N)n1 [[2-(2-cyanoethyl)-5-methyl-pyrazol-3-yl] benzoate]
> 50 | O=C(O)c1cc(-c2ccc(F)cc2F)ccc1O
> 50 | CCN1CCN(C(=O)N[C@@H](C(=O)N[C@@H]2C(=O)N3[C@@H]2SC(C)(C)[C@@H]3C(=O)O)c2ccccc2)C(=O)C1=O [PIPERACILLIN SODIUM SALT]
> 50 | COc1ccc(Br)cc1C=c1sc2nc(-c3ccco3)nn2c1=O [5-[(5-bromanyl-2-methoxy-phenyl)methylidene]-2-(furan-2-yl)-[1,3]thiazolo[3,2-b][1,2,4]triazol-6-one]
> 50 | COC(=O)c1ccc(CSc2nnc(SCc3ccc(C(=O)OC)o3)s2)o1 [5-[[[5-[(5-carbomethoxy-2-furyl)methylthio]-1,3,4-thiadiazol-2-yl]thio]methyl]furan-2-carboxylic acid methyl ester]

Structure (SMILES) | IC50 [µM]
CCCCOCCCNC(=O)N[C@@H](CC(C)C)C(=O)O [(2S)-2-(3-butoxypropylcarbamoylamino)-4-methyl-pentanoic acid] | > 50
O=S(=O)(c1ccc(Cl)cc1)N1CN2CCN(C2)C1 [3-(4-Chloro-benzenesulfonyl)-1,3,5-triaza-bicyclo[3.2.1]octane] | > 50
CC[N+](C)(C)c1cccc(O)c1 [Edrophonium Chloride, 3] | > 50
N#[N+][CH-]C(=O)OCC(N)C(=O)O [(E)-1-[(2S)-2-amino-2-carboxy-ethoxy]-2-diazonio-ethenolate] | > 50
CNC(=O)Oc1ccc2c(c1)[C@]1(C)CCN(C)[C@@H]1N2C [(3aS,8aR)-1,3a,8-trimethyl-1H,2H,3H,3aH,8H,8aH-pyrrolo[2,3-b]indol-5-yl N-methylcarbamate; 2-hydroxybenzoic acid] | > 50
COc1ccc(N2CCN(C(CNC(=O)Oc3ccccc3)c3cccnc3)CC2)cc1 (stereo not given) [MLS000094397] | > 50
CCCCc1oc2ccccc2c1C(=O)c1cc(I)c(OCCN(CC)CC)c(I)c1 [(2-{4-[(2-butyl-1-benzofuran-3-yl)carbonyl]-2,6-diiodophenoxy}ethyl)diethylamine] | > 50

Source: BindingDB's records for doi:10.7270/Q2222S6W (University of Pittsburgh, 2007)
